System: CD8+ T cells
Assay: In vitro immunogenicity of HLA-A*24 class I peptides: in vitro T-cell priming with aAPCs loaded with peptide/MHC complexes and anti-CD28 antibody, pMHC multimer readout
Type: cell-based, human
Conditions: given as a class symbol; for Donors: share of positive donors in the in vitro immunogenicity experiments; for Wells: share of positive wells in the in vitro immunogenicity experiments
Protocol: In order to obtain information regarding the immunogenicity of the TUMAPs of the present invention, we performed investigations using an in vitro T-cell priming assay based on repeated stimulations of CD8+ T cells with artificial antigen presenting cells (aAPCs) loaded with peptide/MHC complexes and anti-CD28 antibody.
Isolated CD8+ lymphocytes or PBMCs were incubated until use in T-cell medium (TCM) consisting of RPMI-Glutamax (Invitrogen, Karlsruhe, Germany) supplemented with 10% heat inactivated human AB serum (PAN-Biotech, Aidenbach, Germany), 100 U/ml Penicillin/100 μg/ml Streptomycin (Cambrex, Cologne, Germany), 1 mM sodium pyruvate (CC Pro, Oberdorla, Germany), 20 μg/ml Gentamycin (Cambrex). 2.5 ng/ml IL-7 (PromoCell, Heidelberg, Germany) and 10 U/ml IL-2 (Novartis Pharma, Nurnberg, Germany) were also added to the TCM at this step. Generation of pMHC/anti-CD28 coated beads, T-cell stimulations and readout was performed in a highly defined in vitro system using four different pMHC molecules per stimulation condition and 8 different pMHC molecules per readout condition. All pMHC complexes used for aAPC loading and cytometric readout were derived from UV-induced MHC ligand exchange with minor modifications. In order to determine the amount of pMHC monomer obtained by exchange we performed streptavidin-based sandwich ELISAs according to (Rodenko et al., 2006). The purified co-stimulatory mouse IgG2a anti human CD28 Ab 9.3 (Jung et al., 1987) was chemically biotinylated using Sulfo-N-hydroxysuccinimidobiotin as recommended by the manufacturer (Perbio, Bonn, Germany). Beads used were 5.6 μm diameter streptavidin coated polystyrene particles (Bangs Laboratories, Illinois, USA).
800.000 beads/200 μl were coated in 96-well plates in the presence of 4×12.5 ng different biotin-pMHC, washed and 600 ng biotin anti-CD28 were added subsequently in a volume of 200 μl. Stimulations were initiated in 96-well plates by co-incubating 1×10^6 CD8+ T cells with 2×10^5 washed coated beads in 200 μl TCM supplemented with 5 ng/ml IL-12 (PromoCell) for 3-4 days at 37° C. Half of the medium was then exchanged by fresh TCM supplemented with 80 U/ml IL-2 and incubating was continued for 3-4 days at 37° C. This stimulation cycle was performed for a total of three times, with 12 individual wells per condition For the pMHC multimer readout using 8 different pMHC molecules per condition, a two-dimensional combinatorial coding approach was used as previously described (Andersen et al., 2012) with minor modifications encompassing coupling to 5 different fluorochromes. Finally, multimeric analyses were performed by staining the cells with Live/dead near IR dye (Invitrogen, Karlsruhe, Germany), CD8-FITC antibody clone SK1 (BD, Heidelberg, Germany) and fluorescent pMHC multimers. For analysis, a BD LSRII SORP cytometer equipped with appropriate lasers and filters was used. Peptide specific cells were calculated as percentage of total CD8+ cells. Evaluation of multimeric analysis was done using the FlowJo software (Tree Star, Oregon, USA). In vitro priming of specific multimer+ CD8+ lymphocytes was detected by comparison to irrelevant control stimulations.
Exemplary flow cytometry results after TUMAP-specific multimer staining for two peptides of the invention are shown in FIG. 4 together with corresponding negative controls.

Substance | Donors | Wells
YYHFIFTTL (listed as Homo sapiens) [GRIK3-002] | ++++ (>70% = ++++) | + (<20% = +)
YYLDKSVSI (listed as Homo sapiens) [SCARA3-002] | ++ (20%-49 % = ++) | + (<20% = +)
YYPGVILGF (listed as Homo sapiens) [TMEM255A-001] | ++ (20%-49 % = ++) | + (<20% = +)
YYQIRSSQL (listed as Homo sapiens) [EXOC7-001] | ++ (20%-49 % = ++) | + (<20% = +)
YYTVRNFTL (listed as Homo sapiens) [PTP-014] | ++ (20%-49 % = ++) | + (<20% = +)
ZNFS3-001 (RYLPSSVFL; listed as Homo sapiens) | +++ (50%-70% = +++) | ++ (20%-49 % = ++)

From US11607446B2, “Personalized immunotherapy against several neuronal and brain tumors” (Immatics Biotechnologies GmbH, priority 2013, dated 2023)
